From patent publication US20210130346A1, “Bromodomain Inhibitors” (AbbVie Inc., priority 2017, published 2021)

Target: BRD4 (BDI_K57-E168) (Homo sapiens, UniProt O60885)
Experiment: TR-FRET bromodomain binding assay, BRD4 first bromodomain (BDI)
Details: mean Ki; 12 nM His tagged BRD4 (BDI_K57-E168), 100 nM Alexa647 probe; Ki calculated from IC50, probe Kd and probe concentration
Method: A time-resolved fluorescence resonance energy transfer (TR-FRET) assay was used to determine the affinities of compounds of the Examples listed in Table 1 for each bromodomain of BRD4. […] An Alexa647-labeled BET-inhibitor was used as the fluorescent probe in the assay.
Compound dilution series were prepared in DMSO via an approximately 3-fold serial dilution. Compound dilutions were added directly into white, low-volume assay plates (Perkin Elmer Proxiplate 384 Plus# 6008280) using a Labcyte Echo in conjunction with Labcyte Access and Thermo Multidrop CombinL robotics. Compounds were then suspended in eight microliters (μL) of assay buffer (20 mM Sodium Phosphate, pH 6.0, 50 mM NaCl, 1 mM Ethylenediaminetetraacetic acid disodium salt dihydrate, 0.01% Triton X-100, 1 mM DL-Dithiothreitol) containing His-tagged bromodomain, Europium-conjugated anti-His antibody (Invitrogen PV5596) and Alexa-647-conjugated probe.
After a one-hour equilibration at room temperature, TR-FRET ratios were determined using an Envision multilabel plate reader (Ex 340, Em 495/520).
TR-FRET data were normalized to the means of 24 no-compound controls (“high”) and 8 controls containing 1 μM un-labeled probe (“low”). Percent inhibition was plotted as a function of compound concentration and the data were fit with the 4 parameter logistic equation to obtain IC50s. Inhibition constants (Ki) were calculated from the IC50s, probe Kd and probe concentration.

| Ki [µM] | SMILES |
| --- | --- |
| > 13 | CN1C(=O)[C@@]2(C[C@H]2c2cn(C)c(=O)c3[nH]c(C(=O)Nc4ccccc4)cc23)c2ccccc21 (racemic) [Example 8, rac-6-methyl-4-[(1R,2S)-1′-methyl-2′-oxo-1′,2′-dihydrospiro[cyclopropane-1,3′-indol]-2-yl]-7-oxo-N-phenyl-6,7-dihydro-1H-pyrrolo[2,3-c]pyridine-2-carboxamide] |
| > 13 | Cn1cc([C@@H]2C[C@@]23C(=O)Nc2ccccc23)c2cc(C(=O)NC3CC3)[nH]c2c1=O (racemic) [Example 19, rac-N-cyclopropyl-6-methyl-7-oxo-4-[(1R,2S)-2′-oxo-1′,2′-dihydrospiro[cyclopropane-1,3′-indol]-2-yl]-6,7-dihydro-1H-pyrrolo[2,3-c]pyridine-2-carboxamide] |
| > 13 | CN1C(=O)[C@@]2(C[C@H]2c2cn(C)c(=O)c3[nH]c(C(=O)O)cc23)c2ccccc21 (single isomer, unassigned) [Example 7] |
| > 13 | CN1C(=O)[C@]2(C[C@@H]2c2cn(C)c(=O)c3[nH]c(-c4ccnc(C(F)(F)F)c4)cc23)c2ccccc21 [Example 52, (1S,2R)-1′-methyl-2-{6-methyl-7-oxo-2-[2-(trifluoromethyl)pyridin-4-yl]-6,7-dihydro-1H-pyrrolo[2,3-c]pyridin-4-yl}spiro[cyclopropane-1,3′-indol]-2′(1H)-one] |
| 9.95 | CN1C(=O)[C@@]2(C[C@H]2c2cn(C)c(=O)c3[nH]c(C(=O)NC4CC4)cc23)c2cc(F)ccc21 (racemic) [Example 16, rac-N-cyclopropyl-4-[(1R,2S)-5′-fluoro-1′-methyl-2′-oxo-1′,2′-dihydrospiro[cyclopropane-1,3′-indol]-2-yl]-6-methyl-7-oxo-6,7-dihydro-1H-pyrrolo[2,3-c]pyridine-2-carboxamide] |
| 3.63 | CN1C(=O)[C@@]2(C[C@H]2c2cn(C)c(=O)c3[nH]c(C(=O)NC4CC4)cc23)c2ccc(OC(F)(F)F)cc21 (racemic) [Example 15, rac-N-cyclopropyl-6-methyl-4-[(1R,2S)-1′-methyl-2′-oxo-6′-(trifluoromethoxy)-1′,2′-dihydrospiro[cyclopropane-1,3′-indol]-2-yl]-7-oxo-6,7-dihydro-1H-pyrrolo[2,3-c]pyridine-2-carboxamide] |
| > 13 | CN1C(=O)[C@@]2(C[C@@]2(C)c2cn(C)c(=O)c3[nH]c(C(=O)NC4CC4)cc23)c2ccc(OC(F)(F)F)cc21 (racemic) [Example 58, rac-N-cyclopropyl-4-[(1R,2S)-1′,2-dimethyl-2′-oxo-6′-(trifluoromethoxy)-1′,2′-dihydrospiro[cyclopropane-1,3′-indol]-2-yl]-6-methyl-7-oxo-6,7-dihydro-1H-pyrrolo[2,3-c]pyridine-2-carboxamide] |
| 1.84 | CN1C(=O)[C@@]2(C[C@H]2c2cn(C)c(=O)c3[nH]c(-c4cn(C)cn4)cc23)c2ccccc21 (racemic) [Example 43, rac-(1R,2S)-1′-methyl-2-[6-methyl-2-(1-methyl-1H-imidazol-4-yl)-7-oxo-6,7-dihydro-1H-pyrrolo[2,3-c]pyridin-4-yl]spiro[cyclopropane-1,3′-indol]-2′(1H)-one] |
| > 13 | CN1C(=O)[C@@]2(C[C@@H]2c2cn(C)c(=O)c3[nH]c(-c4cc[nH]n4)cc23)c2ccccc21 (racemic) [Example 38, rac-(1R,2R)-1′-methyl-2-[6-methyl-7-oxo-2-(1H-pyrazol-3-yl)-6,7-dihydro-1H-pyrrolo[2,3-c]pyridin-4-yl]spiro[cyclopropane-1,3′-indol]-2′(1H)-one] |
| 4.14 | CN1C(=O)[C@@]2(C[C@H]2c2cn(C)c(=O)c3[nH]c(-c4cccnc4)cc23)c2ccccc21 [Example 49, (1R,2S)-1′-methyl-2-[6-methyl-7-oxo-2-(pyridin-3-yl)-6,7-dihydro-1H-pyrrolo[2,3-c]pyridin-4-yl]spiro[cyclopropane-1,3′-indol]-2′(1H)-one] |
| 4 | CCN1C(=O)[C@@]2(C[C@H]2c2cn(C)c(=O)c3[nH]c(C(=O)NC4CC4)cc23)c2ccccc21 (racemic) [Example 22, rac-N-cyclopropyl-4-[(1R,2S)-1′-ethyl-2′-oxo-1′,2′-dihydrospiro[cyclopropane-1,3′-indol]-2-yl]-6-methyl-7-oxo-6,7-dihydro-1H-pyrrolo[2,3-c]pyridine-2-carboxamide] |
| 3.44 | CN1C(=O)[C@@]2(C[C@H]2c2cn(C)c(=O)c3[nH]ccc23)c2ccccc21 (racemic) [Example 30, rac-(1R,2S)-1′-methyl-2-(6-methyl-7-oxo-6,7-dihydro-1H-pyrrolo[2,3-c]pyridin-4-yl)spiro[cyclopropane-1,3′-indol]-2′(1H)-one] |
| 0.885 | Cc1cc(-c2cc3c([C@@H]4C[C@@]45C(=O)N(C)c4ccccc45)cn(C)c(=O)c3[nH]2)on1 (racemic) [Example 39, rac-(1R,2S)-1′-methyl-2-[6-methyl-2-(3-methyl-1,2-oxazol-5-yl)-7-oxo-6,7-dihydro-1H-pyrrolo[2,3-c]pyridin-4-yl]spiro[cyclopropane-1,3′-indol]-2′(1H)-one] |
| 6.08 | CCNC(=O)c1cc2c([C@@H]3C[C@@]34C(=O)N(C)c3ccccc34)cn(C)c(=O)c2[nH]1 (racemic) [Example 1, rac-N-ethyl-6-methyl-4-[(1R,2S)-1′-methyl-2′-oxo-1′,2′-dihydrospiro[cyclopropane-1,3′-indol]-2-yl]-7-oxo-6,7-dihydro-1H-pyrrolo[2,3-c]pyridine-2-carboxamide] |
| 2.05 | CN1C(=O)[C@@]2(C[C@H]2c2cn(C)c(=O)c3[nH]c(C(=O)Nc4cccc(CO)c4)cc23)c2ccccc21 (racemic) [Example 10, rac-N-[3-(hydroxymethyl)phenyl]-6-methyl-4-[(1R,2S)-1′-methyl-2′-oxo-1′,2′-dihydrospiro[cyclopropane-1,3′-indol]-2-yl]-7-oxo-6,7-dihydro-1H-pyrrolo[2,3-c]pyridine-2-carboxamide] |
| 1.3 | CN1C(=O)[C@@]2(C[C@H]2c2cn(C)c(=O)c3[nH]c(-c4cnn(C)c4)cc23)c2ccccc21 [Example 35, (1R,2S)-1′-methyl-2-[6-methyl-2-(1-methyl-1H-pyrazol-4-yl)-7-oxo-6,7-dihydro-1H-pyrrolo[2,3-c]pyridin-4-yl]spiro[cyclopropane-1,3′-indol]-2′(1H)-one] |
| 1.28 | CN1C(=O)[C@@]2(C[C@H]2c2cn(C)c(=O)c3[nH]c(-c4ccncc4)cc23)c2ccccc21 (racemic) [Example 50, rac-(1R,2S)-1′-methyl-2-[6-methyl-7-oxo-2-(pyridin-4-yl)-6,7-dihydro-1H-pyrrolo[2,3-c]pyridin-4-yl]spiro[cyclopropane-1,3′-indol]-2′(1H)-one] |
| 4.8 | COc1ccc2c(c1)N(C)C(=O)[C@@]21C[C@H]1c1cn(C)c(=O)c2[nH]c(C(=O)NC3CC3)cc12 (racemic) [Example 14, rac-N-cyclopropyl-4-[(1R,2S)-6′-methoxy-1′-methyl-2′-oxo-1′,2′-dihydrospiro[cyclopropane-1,3′-indol]-2-yl]-6-methyl-7-oxo-6,7-dihydro-1H-pyrrolo[2,3-c]pyridine-2-carboxamide] |
| > 13 | Cn1cc([C@@H]2C[C@@]23C(=O)N(CC(F)(F)F)c2ccccc23)c2cc(C(=O)NC3CC3)[nH]c2c1=O [Example 25, N-cyclopropyl-6-methyl-7-oxo-4-[(1R,2S)-2′-oxo-′-(2,2,2-trifluoroethyl)-1′,2′-dihydrospiro[cyclopropane-1,3′-indol]-2-yl]-6,7-dihydro-1H-pyrrolo[2,3-c]pyridine-2-carboxamide] |
| 7.38 | CN1C(=O)[C@@]2(C[C@H]2c2cn(C)c(=O)c3[nH]c(C(=O)NC4CC4)cc23)c2ccc(F)cc21 (racemic) [Example 11, rac-N-cyclopropyl-4-[(1R,2S)-6′-fluoro-1′-methyl-2′-oxo-1′,2′-dihydrospiro[cyclopropane-1,3′-indol]-2-yl]-6-methyl-7-oxo-6,7-dihydro-1H-pyrrolo[2,3-c]pyridine-2-carboxamide] |
| > 13 | CN1C(=O)[C@@]2(C[C@H]2c2cn(C)c(=O)c3[nH]c(C(=O)NC4CC4)cc23)c2cc(F)ccc21 (single isomer, unassigned) [Example 18] |
| 4.21 | Cn1cc([C@H]2C[C@]23C(=O)N(CC(F)(F)F)c2ccccc23)c2cc(C(=O)NC3CC3)[nH]c2c1=O [Example 24, N-cyclopropyl-6-methyl-7-oxo-4-[(1S,2R)-2′-oxo-′-(2,2,2-trifluoroethyl)-1′,2′-dihydrospiro[cyclopropane-1,3′-indol]-2-yl]-6,7-dihydro-1H-pyrrolo[2,3-c]pyridine-2-carboxamide] |
| 4.53 | CN1C(=O)[C@@]2(C[C@H]2c2cn(C)c(=O)c3[nH]c(C(=O)NC4CC4)cc23)c2ccc(Cl)cc21 (racemic) [Example 12, rac-4-[(1R,2S)-6′-chloro-1′-methyl-2′-oxo-1′,2′-dihydrospiro[cyclopropane-1,3′-indol]-2-yl]-N-cyclopropyl-6-methyl-7-oxo-6,7-dihydro-1H-pyrrolo[2,3-c]pyridine-2-carboxamide] |
| 1.3 | CN1C(=O)[C@@]2(C[C@H]2c2cn(C)c(=O)c3[nH]c(-c4cncn4C)cc23)c2ccccc21 (racemic) [Example 44, rac-(1R,2S)-1′-methyl-2-[6-methyl-2-(1-methyl-1H-imidazol-5-yl)-7-oxo-6,7-dihydro-1H-pyrrolo[2,3-c]pyridin-4-yl]spiro[cyclopropane-1,3′-indol]-2′(1H)-one] |
